# Test results reported in US20230203043A1, “NOVEL IMIDAZOPYRAZINE DERIVATIVES” (Hoffmann-La Roche Inc., priority 2020, published 2023).
# Structures can show the parent of a compound that is named as a salt.
# Tested on: Acinetobacter baumannii ATCC17961
# Experiment: Antimicrobial susceptibility testing: 90% growth inhibitory concentration (IC90) determination in Iso-Sensitest broth, OD600 growth
# Assay type: cell-based
# Conditions: Acinetobacter baumannii, ATCC17961, 16 h, read-out: A. baumannii ATCC 17961 IC90 (uM), strain ATCC 17961, OD600 growth over 16 h
# Method in brief: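 Growth inhibition is calculated during the logarithmic phase from OD600 readings taken every 20 minutes across 16 h at 35±2° C. Bacteria at ~5×10^(5) CFU/ml face twofold dilution series (e.g. 50 to 0.097 μM final).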
row,SMILES,IC90 [µM]
1,"CCc1cc(Nc2nccn3c(-c4cn(CC#N)nc4C(F)(F)F)cnc23)ccc1C(=O)NCC(=O)NCC1(O)CCNCC1 [Example 525, 4-[[3-[1-(cyanomethyl)-3-(trifluoromethyl)pyrazol-4-yl]imidazo[1,2-a]pyrazin-8-yl]amino]-2-ethyl-N-[2-[(4-hydroxy-4-piperidyl)methylamino]-2-oxo-ethyl]benzamide formate]",0.593
2,"CCc1cc(Nc2nccn3c(-c4cn(CC(F)F)nc4C(F)(F)F)cnc23)ccc1C(=O)NCC(=O)N1CC2(CNC2)C1 [Example 526, N-[2-(2,6-diazaspiro[3.3]heptan-2-yl)-2-oxo-ethyl]-4-[[3-[1-(2,2-difluoroethyl)-3-(trifluoromethyl)pyrazol-4-yl]imidazo[1,2-a]pyrazin-8-yl]amino]-2-ethyl-benzamide formate]",0.306
3,"CCc1cc(Nc2nccn3c(-c4cn(CC(F)F)nc4C(F)(F)F)cnc23)ccc1C(=O)NCC(=O)N1CCC(CN)C1 (stereo not drawn) [Example 527, N-[2-[3-(aminomethyl)pyrrolidin-1-yl]-2-oxo-ethyl]-4-[[3-[1-(2,2-difluoroethyl)-3-(trifluoromethyl)pyrazol-4-yl]imidazo[1,2-a]pyrazin-8-yl]amino]-2-ethyl-benzamide formate]",0.306
4,"CCc1cc(Nc2nccn3c(-c4cn(CC(F)F)nc4C(F)(F)F)cnc23)ccc1C(=O)NCC(=O)N1CCCC1CN (stereo not drawn) [Example 528, N-[2-[2-(aminomethyl)pyrrolidin-1-yl]-2-oxo-ethyl]-4-[[3-[1-(2,2-difluoroethyl)-3-(trifluoromethyl)pyrazol-4-yl]imidazo[1,2-a]pyrazin-8-yl]amino]-2-ethyl-benzamide formate]",0.243
5,"CCc1cc(Nc2nccn3c(-c4cn(CC(F)F)nc4C(F)(F)F)cnc23)ccc1C(=O)NCC(=O)NC1C2CNCC21 (stereo not drawn) [Example 529, N-[2-(3-azabicyclo[3.1.0]hexan-6-ylamino)-2-oxo-ethyl]-4-[[3-[1-(2,2-difluoroethyl)-3-(trifluoromethyl)pyrazol-4-yl]imidazo[1,2-a]pyrazin-8-yl]amino]-2-ethyl-benzamide formate]",0.248
6,"CCc1cc(Nc2nccn3c(-c4cn(CC(F)F)nc4C(F)(F)F)cnc23)ccc1C(=O)NCC(=O)NCC1CCN1 (stereo not drawn) [Example 530, N-[2-(azetidin-2-ylmethylamino)-2-oxo-ethyl]-4-[[3-[1-(2,2-difluoroethyl)-3-(trifluoromethyl)pyrazol-4-yl]imidazo[1,2-a]pyrazin-8-yl]amino]-2-ethyl-benzamide formate]",0.327
7,"CCc1cc(Nc2nccn3c(-c4c[nH]nc4C(F)(F)F)cnc23)ccc1C(=O)NCCCNC(=O)[C@@H]1CC[C@H](N)C1 [Example 534, N-(3-((1R,3S)-3-aminocyclopentane-1-carboxamido)propyl)-2-ethyl-4-((3-(3-(trifluoromethyl)-1H-pyrazol-4-yl)imidazo[1,2-a]pyrazin-8-yl)amino)benzamide formate]",0.251
8,"CCc1cc(Nc2nccn3c(-c4c[nH]nc4C(F)(F)F)cnc23)ccc1C(=O)NCCCNC(=O)[C@H]1CC[C@@H](N)C1 [Example 535, N-(3-((1S,3R)-3-aminocyclopentane-1-carboxamido)propyl)-2-ethyl-4-((3-(3-(trifluoromethyl)-1H-pyrazol-4-yl)imidazo[1,2-a]pyrazin-8-yl)amino)benzamide formate]",0.247

# Same assay, conditions: Acinetobacter baumannii, ATCC17961, 16 h, strain ATCC 17961, OD600 growth over 16 h, read-out: A. baumannii ATCC 17961 IC90
row,IC90 [µM],SMILES
1,0.369,"CCc1cc(Nc2nccn3c(-c4c[nH]nc4C(F)(F)F)cnc23)ccc1C(=O)NCCNC(=O)N1CC[C@@H](N)C1 [Example 517, (R)-3-amino-N-(2-(2-ethyl-4-((3-(3-(trifluoromethyl)-1H-pyrazol-4-yl)imidazo[1,2-a]pyrazin-8-yl)amino)benzamido)ethyl) pyrrolidine-1-carboxamide formate]"
2,0.935,"Cc1cc(Nc2nccn3c(-c4c[nH]nc4C(F)(F)F)cnc23)ccc1S(C)(=O)=NCCCN (stereo not drawn) [Example 518, ((3-Aminopropyl)imino)(methyl)(2-methyl-4-((3-(3-(trifluoromethyl)-1H-pyrazol-4-yl)imidazo[1,2-α]pyrazin-8-yl)amino)phenyl)-λ^6-sulfanone]"
3,0.147,"O=C(c1ccc(Nc2nccn3c(-c4cn(CC(F)F)nc4C(F)(F)F)cnc23)cc1Cl)N1CCN(C(=O)[C@H]2[C@@H]3CNC[C@@H]32)CC1 [Example 519, (4-((1R,5S,6r)-3-azabicyclo[3.1.0]hexane-6-carbonyl)piperazin-1-yl)(2-chloro-4-((3-(1-(2,2-difluoroethyl)-3-(trifluoromethyl)-1H-pyrazol-4-yl)imidazo[1,2-a]pyrazin-8-yl)amino)phenyl) methanone formate]"
4,0.27,"CCc1cc(Nc2nccn3c(-c4cn(CC#N)nc4C(F)(F)F)cnc23)ccc1C(=O)NCCNC(=O)N1CC[C@@H](N)C1 [Example 520, (R)-3-amino-N-(2-(4-((3-(1-(cyanomethyl)-3-(trifluoromethyl)-1H-pyrazol-4-yl)imidazo [1,2-a]pyrazin-8-yl)amino)-2-ethylbenzamido)ethyl) pyrrolidine-1-carboxamide formate]"
5,0.38,"CCc1cc(Nc2nccn3c(-c4cn(CC#N)nc4C(F)(F)F)cnc23)ccc1C(=O)NCC(=O)NCC1CNC1 [Example 521, N-[2-(azetidin-3-ylmethylamino)-2-oxo-ethyl]-4-[[3-[1-(cyanomethyl)-3-(trifluoromethyl)pyrazol-4-yl]imidazo[1,2-a]pyrazin-8-yl]amino]-2-ethyl-benzamide formate]"
6,0.402,"CCc1cc(Nc2nccn3c(-c4cn(CC#N)nc4C(F)(F)F)cnc23)ccc1C(=O)NCC(=O)NCC1CCCN1 (stereo not drawn) [Example 522, 4-[[3-[1-(cyanomethyl)-3-(trifluoromethyl)pyrazol-4-yl]imidazo[1,2-a]pyrazin-8-yl]amino]-2-ethyl-N-[2-oxo-2-(pyrrolidin-2-ylmethylamino)ethyl] benzamide formate]"
7,0.313,"CCc1cc(Nc2nccn3c(-c4cn(CC#N)nc4C(F)(F)F)cnc23)ccc1C(=O)NCC(=O)NCC1CCNC1 (stereo not drawn) [Example 523, 4-[[3-[1-(cyanomethyl)-3-(trifluoromethyl)pyrazol-4-yl]imidazo[1,2-a]pyrazin-8-yl]amino]-2-ethyl-N-[2-oxo-2-(pyrrolidin-3-ylmethylamino)ethyl] benzamide formate]"
8,0.395,"CCc1cc(Nc2nccn3c(-c4cn(CC#N)nc4C(F)(F)F)cnc23)ccc1C(=O)NCC(=O)NCC1CCNCC1 [Example 524, 4-[[3-[1-(cyanomethyl)-3-(trifluoromethyl)pyrazol-4-yl]imidazo[1,2-a]pyrazin-8-yl]amino]-2-ethyl-N-[2-oxo-2-(4-piperidylmethylamino)ethyl] benzamide formate]"
9,0.299,"CCc1cc(Nc2nccn3c(-c4c[nH]nc4C(F)(F)F)cnc23)ccc1C(=O)NCCCNC(=O)[C@H]1C[C@@H](N)C1 [Example 531, N-(3-((1s,3s)-3-aminocyclobutane-1-carboxamido)propyl)-2-ethyl-4-((3-(3-(trifluoromethyl)-1H-pyrazol-4-yl)imidazo [1,2-a]pyrazin-8-yl)amino)benzamide formate]"
10,0.245,"CCc1cc(Nc2nccn3c(-c4c[nH]nc4C(F)(F)F)cnc23)ccc1C(=O)NCCCNC(=O)[C@H]1C[C@H](N)C1 [Example 532, N-(3-((1r,3r)-3-aminocyclobutane-1-carboxamido)propyl)-2-ethyl-4-((3-(3-(trifluoromethyl)-1H-pyrazol-4-yl)imidazo [1,2-a]pyrazin-8-yl)amino)benzamide formate]"
